Results taken from PubChem BioAssay AID742 (SRMLSC, 2007).
Active and inactive are the calls of the source. The rule behind the calls is not given here.

Tests used:
[1] = Her2 expression suppression with viability readout – cell-based, AlphaScreen, CellTiter-Glo viability, dose response (AID 742); conditions: human cells, Her2 expression AlphaScreen; CTG viability; at 9.62 µM (top of the series)
[2] = system: human cells, Her2 expression AlphaScreen; CTG viability; test: as above; conditions: for EC50: viability, CellTiter-Glo

Question: Which Her2 inhibition [1] does the source give for `CCn1c(=N)n(CC(=O)C23CC4CC(CC(C4)C2)C3)c2ccccc21` here?
Answer: The Her2 inhibition was -15.5% (inactive).

Question: What about the EC50 [2] of the same molecule?
Answer: The EC50 was > 9.62 µM.

Question: What does the source list for `C=CCOC(=O)C1=C(C)Nc2nnnn2C1c1cc(OC)ccc1OC` (configuration not stated)?
Answer: Her2 inhibition [1]: -8.6% (inactive); EC50 [2]: > 9.62 µM

Question: Which Her2 inhibition [1] does the source give for `CCCc1cc(C(=O)Cc2ccc(F)cc2)c(O)cc1O` here?
Answer: The Her2 inhibition was -30.2% (inactive).

Question: And the EC50 [2]?
Answer: Its EC50 is > 9.62 µM.

Question: With `COC(=O)/C=C/S(=O)(=O)c1ccc(NC(C)=O)cc1` as the molecule, how does the Her2 inhibition [1] read?
Answer: The Her2 inhibition was 20.9% (inactive).

Question: And the EC50 [2]?
Answer: The EC50 was > 9.62 µM.

Question: Which results are given for `O=S1(=O)C=C(Sc2nc3cc(Cl)ccc3o2)c2ccccc21`?
Answer: IC50 [2]: 9.25 µM; EC50 [2]: > 9.62 µM

Question: Which Her2 inhibition [1] does the source give for `O=C(Nc1ccccc1NC(=O)NC1CCCCC1)NC1CCCCC1` here?
Answer: Its Her2 inhibition is -1.72% (inactive).

Question: And the EC50 [2]?
Answer: The EC50 was > 9.62 µM.

Question: For `COc1ccc(CCN2CCC(Nc3nc4ccccc4n3Cc3ccc(F)cc3)CC2)cc1`, which Her2 inhibition [1] is on record?
Answer: The Her2 inhibition was -28.9% (inactive).

Question: And the EC50 [2]?
Answer: Its EC50 is > 9.62 µM.

Question: For `Cc1cc(-n2c(C)cc(C(=O)CSc3nnnn3-c3ccc(Cl)cc3)c2C)no1`, which Her2 inhibition [1] is on record?
Answer: The Her2 inhibition was -6.46% (inactive).

Question: And the EC50 [2]?
Answer: Its EC50 is > 9.62 µM.

Question: For `CS(=O)(=O)c1nc(-c2ccco2)cc(C(F)(F)F)n1`, which IC50 [2] is on record?
Answer: The IC50 was 9.15 µM.

Question: What about the EC50 [2] of the same molecule?
Answer: The EC50 was > 9.62 µM.

Question: With `CCOc1ccccc1N(CC(=O)N1CCOCC1)S(=O)(=O)c1ccccc1` as the molecule, how does the Her2 inhibition [1] read?
Answer: The Her2 inhibition was 3.98% (inactive).

Question: And the EC50 [2]?
Answer: Its EC50 is > 9.62 µM.

Question: For `O=S1(=O)C=C(Sc2nc3ccccc3s2)c2ccccc21`, which IC50 [2] is on record?
Answer: Its IC50 is 5.63 µM.

Question: What about the EC50 [2] of the same molecule?
Answer: The EC50 was > 9.62 µM.

Question: What does the source list for `CCn1nc(-c2cccs2)nc2c(=O)n(C)c(=O)nc1-2`?
Answer: IC50 [2]: 2.55 µM (inactive); EC50 [2]: < 0.024 µM

Question: Which results are given for `COc1ccc(C(=O)C(CN2CCCC2)c2ccccc2)cc1` (configuration not stated)?
Answer: IC50 [2]: 8.95 µM; EC50 [2]: > 9.62 µM

Question: Which IC50 [2] does the source give for `Cc1nc2nc(-c3ccco3)nn2c(C)c1Cl` here?
Answer: The IC50 was 2.6 µM.

Question: What about the EC50 [2] of the same molecule?
Answer: The EC50 was > 9.62 µM.

Question: For `CCCCS(=O)(=O)/C=C\C=C/S(=O)(=O)CCCC`, which IC50 [2] is on record?
Answer: Its IC50 is 4.07 µM.

Question: What about the EC50 [2] of the same molecule?
Answer: The EC50 was > 9.62 µM.

Question: For `CCCn1c(NC(=O)c2ccco2)nc2ccccc21`, which IC50 [2] is on record?
Answer: The IC50 was 2.13 µM.

Question: What about the EC50 [2] of the same molecule?
Answer: The EC50 was > 9.62 µM.

Question: Which results are given for `CN(C)CC(C(=O)c1ccccc1)c1ccccc1` (configuration not stated)?
Answer: IC50 [2]: 8.84 µM; EC50 [2]: > 9.62 µM

Question: Which IC50 [2] does the source give for `Cn1ncnc2c(=O)n(C)c(=O)nc1-2` here?
Answer: The IC50 was 2.24 µM (inactive).

Question: And the EC50 [2]?
Answer: Its EC50 is < 0.024 µM.

Question: For `O=C(CSc1nc2cc(Cl)ccc2s1)c1ccco1`, which IC50 [2] is on record?
Answer: Its IC50 is 5.09 µM.

Question: What about the EC50 [2] of the same molecule?
Answer: The EC50 was > 9.62 µM.

Question: Which results are given for `O=S(=O)(C/C(=C/CO)S(=O)(=O)c1ccccc1)c1ccccc1`?
Answer: IC50 [2]: 5.12 µM; EC50 [2]: > 9.62 µM

Question: Which results are given for `COC(=O)/C(=C1/Oc2cc(C)oc(=O)c2S1)C(F)(F)F`?
Answer: IC50 [2]: 3.78 µM (inactive); EC50 [2]: < 0.024 µM

Question: Which results are given for `CSC1=N/C(=C\C=C\c2cccs2)C(=O)S1`?
Answer: IC50 [2]: 8.09 µM; EC50 [2]: > 9.62 µM

Question: Which IC50 [2] does the source give for `Cc1ccc(CNC(=O)c2cc3c(-c4ccc(Cl)cc4)nn(C)c3s2)o1` here?
Answer: The IC50 was 6.48 µM.

Question: And the EC50 [2]?
Answer: Its EC50 is > 9.62 µM.

Question: With `Cc1nn2c(-c3ccco3)nnc2c2ccccc12` as the molecule, how does the IC50 [2] read?
Answer: The IC50 was 2.38 µM.

Question: And the EC50 [2]?
Answer: The EC50 was > 9.62 µM.

Question: For `Cc1ccc(-c2csc3ncnc(Sc4nnc(CN5CCCCCC5=O)o4)c23)cc1`, which IC50 [2] is on record?
Answer: The IC50 was 4.53 µM.

Question: And the EC50 [2]?
Answer: The EC50 was > 9.62 µM.

Question: With `CCn1nc(-c2ccccc2)nc2c(=O)n(C)c(=O)nc1-2` as the molecule, how does the IC50 [2] read?
Answer: The IC50 was 4.48 µM (inactive).

Question: And the EC50 [2]?
Answer: Its EC50 is < 0.024 µM.

Question: For `CS(=O)(=O)c1nc(-c2cccs2)cc(C(F)(F)F)n1`, which IC50 [2] is on record?
Answer: The IC50 was 7.37 µM.

Question: And the EC50 [2]?
Answer: The EC50 was > 9.62 µM.

Question: What does the source list for `CCN1/C(=C/C(=O)c2ccco2)Sc2ccccc21`?
Answer: IC50 [2]: 3.63 µM; EC50 [2]: > 9.62 µM

Question: Which IC50 [2] does the source give for `COC(=O)c1sccc1NC(=O)c1ccc(Cl)s1` here?
Answer: Its IC50 is 9 µM.

Question: What about the EC50 [2] of the same molecule?
Answer: The EC50 was > 9.62 µM.

Question: Which results are given for `Cn1c(C(C#N)C(=O)c2ccco2)nc2ccccc21` (configuration not stated)?
Answer: IC50 [2]: 2.25 µM; EC50 [2]: > 9.62 µM

Question: For `O=S1(=O)C=C(Sc2nnc(-c3ccccc3)o2)c2ccccc21`, which IC50 [2] is on record?
Answer: The IC50 was 7.54 µM.

Question: And the EC50 [2]?
Answer: Its EC50 is > 9.62 µM.

Question: What does the source list for `Cc1nc(NC(=O)c2ccco2)sc1C(=O)Nc1ccc(Br)cc1`?
Answer: IC50 [2]: 1.49 µM; EC50 [2]: > 9.62 µM

Question: Which results are given for `Nc1nnnn1/N=C/C(Br)=C/c1ccccc1`?
Answer: IC50 [2]: 3.58 µM; EC50 [2]: > 9.62 µM

Question: Which results are given for `CS(=O)(=O)c1nc(-c2ccccc2)cc(C(F)(F)F)n1`?
Answer: IC50 [2]: 9.06 µM; EC50 [2]: > 9.62 µM

Question: What does the source list for `O=S(=O)(CC(CN1CCCC1)N1CCCC1)c1ccc2ccccc2c1` (configuration not stated)?
Answer: IC50 [2]: 7.29 µM; EC50 [2]: > 9.62 µM

Question: Which results are given for `CC(=O)c1sc2nc(-c3cccs3)cc(C(F)(F)F)c2c1N`?
Answer: IC50 [2]: 9.32 µM; EC50 [2]: > 9.62 µM
